Test results taken from patent US11123292B2, “Use of biocompatible microdroplets for the treatment of atherosclerosis, heart disease and stroke” (priority 2014, dated 2021).
Like-named read-outs stand apart in the source and are kept apart here.

Columns and labels:
[1] = single compound; cited from earlier work
[2] = Relative Energy Difference (RED) with cholesterol, calculated from HSP; conditions: for Ra^2 versus cholesterol: Eq. 1; for Relative Energy Difference (RED) with cholesterol: RED=Ra/Ro, Ro of cholesterol 12.6
Description: The extent to which two compounds will dissolve each other can be quantified using the equations developed by Hansen: (Ra)^2=4(δd2−δd1)^2+(δp2−δp1)^2+(δh2−δh1)^2 Eq. (1) RED=Ra/Ro Eq. (2)
Equation 1 calculates the relative magnitude difference of the three Hansen parameters of the two compounds to arrive at Ra. […] Equation 2 allows one to calculate the Relative Energy Difference (RED) of the solvent and the material we are trying to dissolve, by dividing Ra by Ro. Ra was calculated in Equation 1 and measures the magnitude of the difference of the HSP values of the two compounds. The units for the HSP parameters δd, δp, δh are MPa^1/2. […] The Relative Energy Difference (RED) is a dimensionless number which quantifies how well a solvent will dissolve a solute. For an RED>>1 the compounds will not dissolve. For an RED˜1, there will be some dissolution. For an RED<1 there will be a considerable amount of dissolution. Essentially, the smaller RED value, the more solute will dissolve into the solvent, with RED=1 being a threshold where a given solute is starting to be soluble in a given solvent.
Referring now to FIG. 6, this diagram provides a flow chart showing how the biocompatible microdroplet solvent emulsion can be formulated. […] For an example of compounds which might be included in 400, please refer to Tables 1, 2, 3 and 4. However, this list of tables is by no means exhaustive and other compounds could be added to this list. The number of compounds selected can comprise of 1, 2, 3 or as many as are deemed necessary, which is symbolized by the variable n. The HSP parameters of a homogenous mixture of compounds are the weighted average of the HSP parameters of the individual components. […] Ideally, it is possible to formulate a solution such that the resultant RED of the mixture is smaller than the RED of any of the individual components.
The δdm, δpm, δhm calculated using Eq. 9 are the Hansen solubility parameters of the homogenous mixture, where m denotes mixture, and fi depicts the fraction of each of the n components used to fabricate the biocompatible solvent. Equation 10 can be used to calculate the RED of the final mixture, where Ro is the interaction radius of the cholesterol, or other component of arterial plaque one desires to dissolve using the biocompatible microdroplets and […] represents the Hansen solubility constants of cholesterol (dispersion, polar and hydrogen bonding components) or the HSP parameter of the arterial plaque which is being targeted.

[3] = cited from earlier work; for LD50 dose: route not stated
[4] = cited from earlier work
[5] = Dissolving cholesterol by microdroplets in whole blood; conditions: whole blood
Description: (§1) To effectively dissolve arterial plaque in-vivo it is very important that the biocompatible solvent be sufficiently insoluble in blood to allow a small discrete microdroplet to travel through the blood stream, from the injection point, to the plaque which is being treated. If the biocompatible solvent dissolves within the blood, such as an alcohol, the solubility parameters of the resultant mixture will be very nearly identical to that of blood and will not dissolve cholesterol or arterial plaque. Conversely, if a discrete microdroplet of the biocompatible solvent makes contact with the plaque, then the cholesterol molecule in the plaque will be surrounded by multiple molecules of the biocompatible solvent, which have similar solubility parameters as the cholesterol, and the cholesterol will be drawn away from the plaque and into the droplet. […] An organic salt, Esters, an organo-metallic compound could also be used as the main component or an addition to the biocompatible microdroplet solvent means. Essentially any organic molecule which can be administered intravenously with acceptable side effects, is sufficiently insoluble in blood to travel as a discrete microdroplet without being dissolved prior to reaching arterial plaque and which is capable of dissolving cholesterol, cholesterol esters or other materials within the arterial plaque, could potentially be used.
(§2) 1,8-cineole is classified as a cyclic ether and a monoterpenoid. […] This chemical gives certain fruits such as apples and strawberries their fruity taste, and is used as an additive in bubble gums for this purpose. […] It is used as a fragrance or flavouring agent. […] It is produced natuarally by the organism, and is found in abundance in shark liver oil.

[6] = Dissolving cholesterol by microdroplets in a dilute solution in water
Description: as §2

[7] = cited from earlier work; remark: listed apart in the source
[8] = Water insoluble solvents tested for dissolving cholesterol / arterial plaque; conditions: medium not stated
Description: as §1

| Compound | δd London dispersion HSP parameter [1] [MPa^1/2] | δh hydrogen bonding HSP parameter [1] [MPa^1/2] | δp polarity HSP parameter [1] [MPa^1/2] | Relative Energy Difference (RED) with cholesterol [2] | efficacy of microdroplets at dissolving cholesterol in whole blood [5] | result of solvent testing (dissolving cholesterol) [8] | other results |
| --- | --- | --- | --- | --- | --- | --- | --- |
| O=C(OCc1ccccc1)c1ccccc1 [Benzyl benzoate] | 20 | 5.2 | 5.1 |  |  |  | Ra^2 versus cholesterol [2]: 24; LD50 dose [3]: 1.68 g/kg |
| c1ccc(Oc2ccccc2)cc1 [Diphenyl ether] | 19.5 | 5.8 | 3.4 | 0.32 | excellent results |  | Ra^2 versus cholesterol [2]: 17; excreted in the urine ([4]; once absorbed): 90%; LD50 dose [3]: 2.85 g/kg of body weight |
| O=C(O)c1ccccc1 [Benzoic acid] |  |  |  |  |  |  | time to excretion in the urine ([4]; after ingestion): ≤ 24 h |
| C=C(C)[C@H]1CC=C(C)CC1 [Limonene] | 17.2 | 4.3 | 1.8 |  | the cholesterol sample seemed to accumulate precipitate and swell |  | dissolving cholesterol in a dilute solution in water [6]: dissolved cholesterol |
| CC(=O)c1ccccc1 [Acetophenone] | 19.6 | 3.7 | 8.6 | 0.66 |  |  | solubility in water / water based blood ([7]; in words): somewhat soluble in water |
| CC/C=C\C/C=C\C/C=C\C/C=C\C/C=C\CCCC(=O)O [Elcosapentaenoic acid] |  |  |  |  |  | very promising results |  |
| Brc1cccc2ccccc12 [1-Bromonaphthalene] |  |  |  |  |  | very promising results |  |
| Cc1ccc(C(C)C)cc1O [Carvacrol] | 16.5 | 11.4 | 3.2 | 0.64 | excellent results |  | solubility in water / water based blood [7]: insoluble in water |
| CC/C=C\C/C=C\C/C=C\CCCCCCCC(=O)O [Alpha-linolenic acid] |  |  |  |  |  | very promising results |  |
| CCOC(=O)OCC [Diethyl carbonate] | 16.6 | 6.1 | 3.1 |  |  |  | LD50 ([3]; oral): 8500 mg/kg |
